Data taken from ChEMBL document CHEMBL1150270, “Effect of the major glycosides of Harpagophytum procumbens (Devil's Claw) on epidermal cyclooxygenase-2 (COX-2) in vitro” (2008).
Calls of active or inactive are those of the source. The calls are words filed in the database; no cut-off is given here.

How the values were obtained:
Assay type in all cases: functional
Sus scrofa [1] = species: Sus scrofa; assay: Inhibition of COX2 synthesis in pig skin
Sus scrofa [2] = species: Sus scrofa; assay: Reduction of COX2 expression in pig skin at 500 uM by Western blotting
Sus scrofa [3] = species: Sus scrofa; assay: Suppression of COX2 expression in pig skin by immunostaining after 6 hrs
Sus scrofa [4] = species: Sus scrofa; assay: Increase in COX2 expression in pig skin at 500 uM by Western blotting

With `C[C@]1(OC(=O)/C=C/c2ccc(O)cc2)C[C@@H](O)[C@]2(O)C=CO[C@@H](O[C@@H]3O[C@H](CO)[C@@H](O)[C@H](O)[C@H]3O)[C@@H]21` the “inhibition (INH)” value (Sus scrofa [1]) was under 50%, the Activity (Sus scrofa [2]) was “Active” and the Activity (Sus scrofa [3]) was “Active”.
With `C[C@@H]1O[C@@H](O[C@@H]2[C@@H](O)[C@H](OCCc3ccc(O)c(O)c3)O[C@H](CO)[C@H]2OC(=O)/C=C/c2ccc(O)c(O)c2)[C@H](O)[C@H](O)[C@H]1O` [ACETOSIDE] the “inhibition (INH)” value (Sus scrofa [1]) was under 50% and the Activity (Sus scrofa [3]) was “Active”.
For `CC(C)Cc1ccc(C(C)C(=O)O)cc1` (stereo not given) [IBUPROFEN], the “inhibition (INH)” value (Sus scrofa [1]) was under 50% and the Activity (Sus scrofa [3]) was “Active”.
With `C[C@]1(O)C[C@@H](O)[C@]2(O)C=CO[C@@H](O[C@H]3O[C@H](CO)[C@@H](O)[C@H](O)[C@H]3O)[C@@H]21` the Activity (Sus scrofa [4]) was “Active”.
In the case of `C[C@]1(OC(=O)/C=C/c2ccccc2)C[C@@H](O)[C@]2(O)C=CO[C@@H](O[C@@H]3O[C@H](CO)[C@@H](O)[C@H](O)[C@H]3O)[C@@H]21` [HARPAGOSIDE], the “inhibition (INH)” value (Sus scrofa [1]) is reported as under 50% and the Activity (Sus scrofa [3]) is reported as “Active”.
